Measured values published in ChEMBL document CHEMBL2074304, “Primary active transport of peptidic endothelin antagonists by rat hepatic canalicular membrane” (J Pharmacol Exp Ther, 1999).
Square brackets hold non-standard residues; d marks the D form. Peptide text beside a SMILES is read from it. * marks the point of attachment. dGly(2-thienyl) = N[C@@H](C(=O)O)c1cccs1; Moc = COC(=O)*

B1: ATP-binding cassette sub-family C member 2 (Rattus norvegicus) (protein)
chain: MDKFCNSTFWDLSLLESPEADLPLCFEQTVLVWIPLGFLWLLAPWQLYSVYRSRTKRSSITKFYLAKQVFVVFLLILAAIDLSLALTEDTGQATVPPVRYTNPILYLCTWLLVLAVQHSRQWCVRKNSWFLSLFWILSVLCGVFQFQTLIRALLKDSKSNMAYSYLFFVSYGFQIVLLILTAFSGPSDSTQTPSVTASFLSSITFSWYDRTVLKGYKHPLTLEDVWDIDEGFKTRSVTSKFEAAMTKDLQKARQAFQRRLQKSQRKPEATLHGLNKKQSQSQDVLVLEEAKKKSEKTTKDYPKSWLIKSLFKTFHVVILKSFILKLIHDLLVFLNPQLLKLLIGFVKSSNSYVWFGYICAILMFAVTLIQSFCLQSYFQHCFVLGMCVRTTVMSSIYKKALTLSNLARKQYTIGETVNLMSVDSQKLMDATNYMQLVWSSVIQITLSIFFLWRELGPSILAGVGVMVLLIPVNGVLATKIRNIQVQNMKNKDKRLKIMNEILSGIKILKYFAWEPSFQEQVQGIRKKELKNLLRFGQLQSLLIFILQITPILVSVVTFSVYVLVDSANVLNAEKAFTSITLFNILRFPLSMLPMVTSSILQASVSVDRLERYLGGDDLDTSAIRRVSNFDKAVKFSEASFTWDPDLEATIQDVNLDIKPGQLVAVVGTVGSGKSSLVSAMLGEMENVHGHITIQGSTAYVPQQSWIQNGTIKDNILFGSEYNEKKYQQVLKACALLPDLEILPGGDMAEIGEKGINLSGGQKQRVSLARAAYQDADIYILDDPLSAVDAHVGKHIFNKVVGPNGLLAGKTRIFVTHGIHFLPQVDEIVVLGKGTILEKGSYRDLLDKKGVFARNWKTFMKHSGPEGEATVNNDSEAEDDDDGLIPTMEEIPEDAASLAMRRENSLRRTLSRSSRSSSRRGKSLKNSLKIKNVNVLKEKEKEVEGQKLIKKEFVETGKVKFSIYLKYLQAVGWWSILFIILFYGLNNVAFIGSNLWLSAWTSDSDNLNGTNNSSSHRDMRIGVFGALGLAQGICLLISTLWSIYACRNASKALHGQLLTNILRAPMRFFDTTPTGRIVNRFSGDISTVDDLLPQTLRSWMMCFFGIAGTLVMICMATPVFAIIIIPLSILYISVQVFYVATSRQLRRLDSVTKSPIYSHFSETVTGLPIIRAFEHQQRFLAWNEKQIDINQKCVFSWITSNRWLAIRLELVGNLVVFCSALLLVIYRKTLTGDVVGFVLSNALNITQTLNWLVRMTSEAETNIVAVERISEYINVENEAPWVTDKRPPADWPRHGEIQFNNYQVRYRPELDLVLKGITCNIKSGEKVGVVGRTGAGKSSLTNCLFRILESAGGQIIIDGIDVASIGLHDLRERLTIIPQDPILFSGSLRMNLDPFNKYSDEEVWRALELAHLRSFVSGLQLGLLSEVTEGGDNLSIGQRQLLCLGRAVLRKSKILVLDEATAAVDLETDSLIQTTIRKEFSQCTVITIAHRLHTIMDSDKIMVLDNGKIVEYGSPEELLSNRGSFYLMAKEAGIENVNHTEL

Columns and labels:
Assay type in all cases: functional, cell membranes, Sprague-Dawley, Bile canalicular membrane vesicle
[1] = target: T1, ATP-binding cassette sub-family C member 2 (Rattus norvegicus, UniProt Q63120); experiment: TP_TRANSPORTER: inhibition of BQ-123 uptake in bile canalicular membrane vesicles from SD rat
[2] = target: T1, ATP-binding cassette sub-family C member 2; experiment: TP_TRANSPORTER: inhibition of BQ-485 uptake in bile canalicular membrane vesicles from SD rat
[3] = substrate: CC(C)C[C@@H]1NC(=O)[C@@H](C(C)C)NC(=O)[C@@H]2CCCN2C(=O)[C@@H](CC(=O)O)NC(=O)[C@@H](Cc2c[nH]c3ccccc23)NC1=O; experiment: (§1) TP_TRANSPORTER: uptake in bile canalicular membrane vesicles from SD rat
[4] = substrate: [H][C@@]12CCCN1C(=O)[C@@H](CC(=O)O)NC(=O)[C@@H](Cc1c[nH]c3ccccc13)NC(=O)[C@H](CC(C)C)NC(=O)[C@@H](c1cccs1)NC2=O; experiment: as §1
[5] = substrate: CC(C)C[C@H](NC(=O)N1CCCCCC1)C(=O)N[C@H](Cc1c[nH]c2ccccc12)C(=O)N[C@H](Cc1c[nH]c2ccccc12)C(=O)O; experiment: as §1

Row | Molecule | Ki [1] [µM] | further results
1 | CC(C)C[C@@H]1NC(=O)[C@@H](C(C)C)NC(=O)[C@@H]2C[C@H](OC(=O)[C@@H](N)CCCNC(=N)N)CN2C(=O)[C@@H](CC(=O)O)NC(=O)[C@@H](Cc2c[nH]c3ccccc23)NC1=O | 1.01 | –
2 | CC(C)C[C@@H]1NC(=O)[C@@H](C(C)C)NC(=O)[C@@H]2C[C@@H](OC(=O)[C@H](CCCCN)N(C)C)CN2C(=O)[C@@H](CC(=O)O)NC(=O)[C@@H](Cc2c[nH]c3ccccc23)NC1=O | 85.4 | –
3 | CC(C)C[C@H](NC(=O)N1CCCCCC1)C(=O)N[C@H](Cc1c[nH]c2ccccc12)C(=O)NC(C)CC(=O)O (stereo not given in full) | 40 | –
4 | CC(C)C[C@@H]1NC(=O)[C@@H](c2cccs2)NC(=O)[C@@H]2CCCN2C(=O)[C@@H](CC(=O)O)NC(=O)[C@@H](Cc2c[nH]c3ccccc23)NC1=O (cyclo(L[dW][dD]P[dGly(2-thienyl)])) | 65.5 | –
5 | CC(C)C[C@H](NC(=O)N1CCCCCC1)C(=O)N[C@H](Cc1c[nH]c2ccccc12)C(=O)N[C@H](Cc1c[nH]c2ccccc12)C(=O)O | 8.32 | –
6 | CC(C)C[C@@H]1NC(=O)[C@@H](C(C)C)NC(=O)[C@@H]2CCCN2C(=O)[C@@H](CC(=O)O)NC(=O)[C@@H](Cc2c[nH]c3ccccc23)NC1=O [BQ-123] (cyclo(L[dW][dD]P[dV])) | – | Ki [2]: 84.1 µM
7 | COC(=O)n1cc(C[C@H]2NC(=O)[C@H](CC(C)C)NC(=O)[C@@H](C(C)C)NC(=O)[C@@H]3CCCN3C(=O)[C@@H](CC(=O)O)NC2=O)c2ccccc21 (cyclo(L[dW](Moc)[dD]P[dV])) | 54.1 | –
8 | B1 | – | Km [3]: 97.8 µM; Km [4]: 15.1 µM; Km [5]: 6.46 µM
